Source: paper PMC3591448, “Profile of the GSK Published Protein Kinase Inhibitor Set Across ATP-Dependent and-Independent Luciferases: Implications for Reporter-Gene Assays” (PLoS ONE, 2013)
Where two headings read alike, the source gives them in different places.

How the values were obtained:
[1] = biological target: firefly luciferase, Photinus pyralis (FLuc) (Photinus pyralis, UniProt P08659); experiment: biochemical; format: biochemical; conditions: for FLuc Parameters Hill Coef: Hill equation fit of CRC; for Emax: response relative to PTC124 control inhibitor, negative = inhibition, read-out: FLuc Parameters Efficacy
Method: The bioluminescence outputs were measured by an EnVision reader (PerkinElmer, Wellesley, MA). Due to the relatively short luminescence duration of the RLuc assay, dispense time constants were set to match closely to the read time of the plate reader. As a result, each individual well was read with approximately the same time delay from reagent dispense to signal acquisition. See Table 1 for the 1536-well assay protocols.
(§1) Data from each assay was normalized plate-wise to corresponding intraplate controls as described previously, [17]. The same control data sets were also used for the calculation of Z′ factors from each assay. In all assays, wells containing DMSO were used as no-response controls. For the FLuc enzymatic assay, each compound-treated well on the plate was normalized to the average readings of n = 24 PTC124 treated wells and n = 48 DMSO wells from the same plate. Wells were scaled to a full range of DMSO and zero, and then normalized using the maximum response observed in the screen as 100% activity. For the RLuc enzymatic assay, n = 24 BTS treated wells for the positive control, n = 48 DMSO. MSR values were calculated using the cumulative potency differences of the de-interleaved duplicate control titrations from each plate as previously described. The normalized data from each assay plate set was corrected using DMSO-only treated assay plates read at the start and end of each assay run, and the resulting inter-plate titration data fit, using in-house software, to the standard Hill equation and dose-response curves automatically classified as described previously.
(§2) The curve classification scheme for assignment of resulting curve-fit data into CRC classes was according to Inglese et al. as follows: class 1 curves (far left) display two asymptotes, an inflection point, and r^2≥0.9; subclasses 1a vs. 1b are differentiated by full (>80%) vs. partial (≤80%) response. Class 2 curves (second from left) display a single left-hand asymptote and inflection point; subclasses 2a (or 2.1) and 2b (2.2) are differentiated by a max response and r^2, >80% and >0.9 or <80% and <0.9, respectively. Class 3 curves (second from right) have a single left-hand asymptote, no inflection point, and a response >3SD from the mean activity of the sample field.

[2] = tested on: JNK3; design: method as in Angell, R.M., et al. 2007; conditions: ref Angell, R.M., et al. 2007; read-out: PKI IC50 (µM), JNK3; cited from earlier work
[3] = biological target: T1, Renilla luciferase (RLuc) (Renilla reniformis, UniProt P27652); experiment: RLuc enzymatic assay (purified enzyme, qHTS, 1536-well); format: biochemical; conditions: 1 nM RLuc, 5 µM coelenterazine-H
T1 sequence (P27652 1-311): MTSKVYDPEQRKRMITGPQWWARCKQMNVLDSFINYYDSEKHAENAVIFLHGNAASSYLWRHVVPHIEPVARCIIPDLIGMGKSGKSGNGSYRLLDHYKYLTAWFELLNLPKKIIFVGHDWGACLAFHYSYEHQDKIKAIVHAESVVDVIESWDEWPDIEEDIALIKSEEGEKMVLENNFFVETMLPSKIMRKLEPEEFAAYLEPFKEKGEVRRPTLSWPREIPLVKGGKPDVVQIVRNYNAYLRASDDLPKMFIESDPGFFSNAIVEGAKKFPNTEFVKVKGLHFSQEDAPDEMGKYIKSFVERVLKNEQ
Method: 1 µL of purified luciferase was then dispensed into each well for final concentrations 10 nM FLuc or 1 nM RLuc. The bioluminescence outputs were measured by an EnVision reader (PerkinElmer, Wellesley, MA). Due to the relatively short luminescence duration of the RLuc assay, dispense time constants were set to match closely to the read time of the plate reader. As a result, each individual well was read with approximately the same time delay from reagent dispense to signal acquisition. See Table 1 for the 1536-well assay protocols.
as §1, §2

[4] = tested on: LCK; design: method as in Bamborough, P., et al. 2007; conditions: ref Bamborough, P., et al. 2007; read-out: PKI IC50 (µM), LCK; cited from earlier work
[5] = tested on: TRKA; design: method as in Wood, E.R., et al. 2004; conditions: ref Wood, E.R., et al. 2004; read-out: PKI IC50 (µM), TRKA; cited from earlier work
[6] = tested on: GSK3β; conditions: ref Peat, A. J., et al., 2004; read-out: PKI IC50 (µM), GSK3β; cited from earlier work
[7] = Figure 2b, representative structures of clusters, read-out: FLuc IC50
[8] = 10 nM FLuc, 10 µM D-luciferin, 10 µM ATP, read-out: FLuc Parameters IC50
[9] = Figure 3, read-out: IC50 (FLuc)
[10] = Figure 4b, read-out: FLuc (IC50)
[11] = Figure 2b, representative structures of clusters

firefly luciferase, Photinus pyralis (FLuc), sequence (P08659 whole entry): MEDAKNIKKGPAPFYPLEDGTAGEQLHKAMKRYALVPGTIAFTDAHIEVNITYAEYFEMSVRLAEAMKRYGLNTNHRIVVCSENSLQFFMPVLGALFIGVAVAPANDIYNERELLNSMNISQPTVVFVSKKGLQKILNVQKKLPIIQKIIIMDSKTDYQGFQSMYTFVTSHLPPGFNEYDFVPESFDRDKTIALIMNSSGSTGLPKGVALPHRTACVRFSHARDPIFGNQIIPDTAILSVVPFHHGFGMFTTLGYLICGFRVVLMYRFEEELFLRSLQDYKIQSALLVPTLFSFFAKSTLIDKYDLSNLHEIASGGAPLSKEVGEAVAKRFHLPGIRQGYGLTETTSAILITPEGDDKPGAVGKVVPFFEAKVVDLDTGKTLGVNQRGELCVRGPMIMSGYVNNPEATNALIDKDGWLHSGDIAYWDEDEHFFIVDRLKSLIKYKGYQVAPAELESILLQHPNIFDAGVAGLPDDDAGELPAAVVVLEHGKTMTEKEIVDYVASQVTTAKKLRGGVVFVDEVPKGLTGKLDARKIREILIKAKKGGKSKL

Row | SMILES | RLuc Curve Class [3] | IC50 [1, 8] [µM] | FLuc Parameters Hill Coef [1] | IC50 ([1]; Table 3, read-out: FLuc IC50) [µM] | Emax [1] [%] | IC50 [1, 9] [µM] | also measured
1 | NS(=O)(=O)c1cccc(N/C=C2\C(=O)Nc3ccccc32)c1 [GW275616X] | – | – | – | – | – | – | IC50 [1, 7]: 18 µM
2 | N#Cc1c(NC(=O)c2ccc(F)cc2)sc2c1CCCC2 [SB-347804] | 4 | 0.92 | 1.48 | 0.92 | 72.5 | – | IC50 [2]: 3.16 µM
3 | COc1cc(Nc2ncc(-c3ccccc3)o2)cc(OC)c1 [GW631581B] | 4 | 6.51 | 1.29 | 6.51 | 88.5 | – | –
4 | COc1cccc(-n2cnc3c(N/N=C/c4ccncc4)ncnc32)c1 [GW813360X] | – | – | – | – | – | 16 | –
5 | COC(=O)Nc1nc2cc(Oc3ccc(NC(=O)Nc4ccccc4)cc3)ccc2[nH]1 [GW694590A] | – | – | – | – | – | 14.6 | IC50 [1, 7]: 15 µM; IC50 [1, 10]: 14 µM
6 | COc1cccc(-n2ncc3c(N/N=C/c4ccc(F)cc4)ncnc32)c1 [GW817396X] | – | – | – | – | – | 33 | –
7 | NC(=O)c1cccc(Nc2nccc(Nc3cccc(F)c3)n2)c1 [GW759710A] | 4 | 0.73 | 1.21 | 0.73 | 98.6 | – | IC50 [4]: 3.3 µM
8 | COc1cccc(-n2ncc3c(N/N=C/c4ccc(C(=O)NCCN(C)C)cc4)ncnc32)c1 [GW784307A] | – | – | – | – | – | 16 | –
9 | COc1ccc(-c2ccc3c(NC(=O)C4CC4)n[nH]c3n2)cc1 [SB-711237] | 4 | 2.31 | 0.8 | 2.31 | 44.8 | – | –
10 | O=C(Nc1n[nH]c2cc(-c3ccccc3)ccc12)C1CC1 [SB-732941] | – | – | – | – | – | – | IC50 [1, 7]: 18 µM
11 | Cc1cccc(Nc2ncc(-c3ccccc3)o2)c1 [GW632046X] | 4 | 0.58 | 1.11 | 0.58 | 104 | – | –
12 | CC(C)c1ccc2c(c1)NC(=O)C2=NNc1ccc(S(N)(=O)=O)cc1 [GW300653X] | – | – | – | – | – | – | FLuc IC50 [1, 11]: Inactive
13 | CS(=O)(=O)CCNCc1coc(-c2ccc3ncnc(Nc4ccc(OCc5ccccc5)cc4)c3c2)c1 [GW566221A] | – | – | – | – | – | – | IC50 [1, 7]: 12 µM
14 | COC(=O)Nc1nc2ccc(Oc3ccc(NC(=O)Nc4cccc(Cl)c4)cc3)cc2[nH]1 [GW589961A] | – | – | – | – | – | > 30 | –
15 | O=C1Nc2ccccc2/C1=C/Nc1ccc2[nH]c(=O)[nH]c2c1 [GW284408X] | 4 | 4.11 | 1.93 | 4.11 | 37.9 | – | IC50 [5]: 0.007 µM
16 | COC(=O)Nc1nc2cc(Oc3ccc(NC(=O)Nc4cccc(Br)c4)cc3)ccc2[nH]1 [GW694234A] | – | – | – | – | – | > 30 | –
17 | Cc1ccc(Nc2ccnc(Nc3cccc(C(N)=O)c3)n2)cc1O [GW575808A] | 4 | 1.46 | 1.54 | 1.46 | 106 | – | IC50 [4]: 0.19 µM
18 | O=C1NC(=O)C(c2ccc(Cl)cc2)=C1Nc1ccc(Cl)c(C(=O)O)c1 [SB-360741] | – | – | – | – | – | – | FLuc IC50 [1, 11]: inactive
19 | COc1ccc(Nc2ncc(-c3ccccc3)o2)cc1OC [GW575533A] | 4 | 5.8 | 1.17 | 5.8 | 90 | – | –
20 | CCN(CC)S(=O)(=O)c1ccc(OC)c(Nc2ncc(-c3ccccc3)o2)c1 [GW572401X] | – | – | – | – | – | > 20 | –
21 | N#Cc1c(NC(=O)c2ccccc2F)sc2c1CCCC2 [GW572738X] | 4 | 0.82 | 1.66 | 0.82 | 82.6 | – | IC50 [2]: 0.4 µM
22 | CCc1cccc(NC(=O)Nc2ccc(Oc3ccc4nc(NC(=O)OC)[nH]c4c3)cc2)c1 [GW673715X] | – | – | – | – | – | > 30 | –
23 | c1ccc(Nc2ncc(-c3ccccc3)o2)cc1 [GW549390X] | 4 | 0.26 | 1.1 | 0.26 | 98.6 | – | –
24 | O=C1Nc2ccccc2/C1=C1\CCc2cc(O)ccc21 [GR105659X] | – | 5.17 | 1.01 | 5.17 | 103 | – | IC50 [5]: 0.006 µM
25 | COc1cccc(-c2c[nH]c3c(N/N=C/c4ccncc4)ncnc23)c1 [GW814408X] | – | – | – | – | – | – | IC50 [1, 7]: 6 µM; IC50 [1, 10]: 5.8 µM
26 | COc1cc(/C=N/Nc2ncnc3c2cnn3C(C)C)ccc1O [GW644007X] | 4 | 5.8 | 1.86 | 5.8 | 40.7 | – | IC50 [6]: 2.51 µM
27 | COc1cc(/C=N/Nc2ncnc3[nH]ncc23)ccc1O [GW578748X] | 4 | 3.66 | 1.33 | 3.66 | 82.3 | 3.7 | IC50 [6]: 3.16 µM
28 | COc1cccc(-n2ncc3c(N/N=C/c4ccncc4)ncnc32)c1 [GW784752X] | – | – | – | – | – | 6.5 | –
29 | COC(=O)Nc1nc2ccc(Oc3ccc(NC(=O)Nc4cccc(C(=O)O)c4)cc3)cc2[nH]1 [GW701427A] | – | 0.12 | 1.69 | 0.12 | 102 | – | –
30 | N#Cc1cccc(Nc2ncc(-c3ccccc3)o2)c1 [GW627834A] | 4 | 1.03 | 1.21 | 1.03 | 84.1 | – | IC50 [1, 7]: 1 µM
